Measurements as given in patent US8765447B2, “Fungal strain Beauveria sp. MTCC 5184 and a process for the preparation of enzymes therefrom” (Council of Scientific and Industrial Research, priority 2010, dated 2014).

Key:
[1] = system: purified protease of Beauveria sp MTCC 5184; test: Effect of β-mercapto ethanol and Triton X-100 on protease activity; type: biochemical; conditions: 30 min
Excerpt: This example illustrates the effect of β-mercapto ethanol (BME) and Triton X-100 on protease activity of Beauveria sp MTCC 5184.

[2] = system: protease of Beauveria sp MTCC 5184; test: Effect of inhibitors on protease activity; type: biochemical
Procedure: The protease activity has been expressed in terms of tyrosine equivalents. The reaction mixture contained an aliquot of suitably diluted enzyme solution and 10 mg Hammerstein casein in 0.1 M sodium carbonate buffer pH 9.0 in a total volume of 2 ml. After incubation at 50° C. for 10 min, the reaction was terminated by the addition of 3 ml of 5% trichloroacetic acid (acidified with concentrated hydrochloric acid). The precipitate formed was filtered through Whatman No. 1 filter paper after standing for 30 min at room temperature. The absorbance of trichloroacetic acid soluble fraction was measured at 280 nm. Micrograms of tyrosine produced was calculated from a pre-calibrated graph of absorbance at 280 nm against tyrosine concentration and the units are expressed as […] of tyrosine released per minute under assay conditions.
This example illustrates the effect of inhibitors on protease activity of Beauveria sp MTCC 5184. Following inhibitors were studied: phenylmethylsulfonyl fluoride (PMSF), ethylene-diaminetetraacetic acid (EDTA), iodoacetic acid, N-tosyl-L-phenylalanine chloromethyl ketone (TPCK), N-tosyl-L-lysine chloromethyl ketone (TLCK), Dimethylsulphoxide (DMSO) and Benzamidine. […] Protease without inhibitor served as control.

[3] = system: purified protease of Beauveria sp MTCC 5184; test: Stability of purified protease in organic solvents at 50° C.; type: biochemical; conditions: 25% (v/v) solvent, pH 7
Excerpt: Following organic solvents were used: acetone, 1-butanol, benzene, chloroform, dimethylsulphoxide, ethanol, hexane, isopropanol and methanol. […] Samples were removed at different time intervals and residual activity was estimated.

[4] = system: protease of Beauveria sp MTCC 5184; test: Stability of protease at 37° C. in water miscible solvents; type: biochemical; conditions: water miscible solvents (FIG. 10)
Procedure: FIG. 10: Stability of protease at 37° C. in presence of water miscible solvents.

[5] = system: protease of Beauveria sp MTCC 5184; test: Modification of tryptophan of protease with NBS; type: biochemical; conditions: 28° C., 30 min
Procedure: This example illustrates the modification of tryptophan with N-bromosuccinimide (NBS) and its effect on protease activity. […] Protease incubated without NBS served as the control.

[6] = system: protease of Beauveria sp MTCC 5184; test: Substrate protection by casein against inhibition by PMSF, NBS and WRK; type: biochemical
Excerpt: The example illustrates the study of substrate protection by casein on inhibition of Beauveria sp MTCC 5184 protease by PMSF, WRK and NBS. […] Increase in casein concentration decreased the inhibition by both the inhibitors indicating substrate protection by casein (Table 11). This indicates the presence of serine, aspartic acid and tryptophan at the active site of protease.

[7] = system: purified protease of Beauveria sp MTCC 5184; conditions: 3 M NaCl (FIG. 14), 28° C., 30 min
Procedure: Samples were removed at regular intervals and residual activity was measured at 50° C., pH 9.0 and expressed as percentage of activity without NaCl taken as 100%.

[8] = system: protease of Beauveria sp MTCC 5184; test: Modification of serine residue of protease by PMSF; type: biochemical; conditions: 28° C., 30 min
Procedure: This example illustrates the modification of serine residue of protease by PMSF and its effect on protease activity. […] Protease incubated without PMSF served as the control.

[9] = system: protease of Beauveria sp MTCC 5184; test: Modification of aspartic acid residue of protease by WRK; type: biochemical; conditions: 28° C., 30 min
Procedure: This example illustrates the modification of aspartic acid residue of protease by Woodward's reagent (WRK) and its effect on protease activity. […] Protease incubated without WRK served as the control.

[10] = system: purified protease of Beauveria sp MTCC 5184; test: Effect of urea on protease activity; type: biochemical; conditions: 6M urea, 28° C., 2 h
Procedure: This example illustrates the effect of urea on protease activity of Beauveria sp MTCC 5184. […] In presence of 6M urea, protease was stable up to 2 h and retained more than 85% of initial activity (FIG. 13).

[11] = inhibitor 5 mM, pre-incubated 1 h, pH 8.0

OCCS [BME, β-mercapto ethanol]
activity retained ([1]; 10% BME, 28° C.): retained full activity

N=C(N)c1ccccc1 [Benzamidine]
Inhibition (%) [2, 11]: 3.62%

C[S+](C)[O-] [DMSO, Dimethylsulphoxide]
Inhibition (%) ([2]; inhibitor 10%, pre-incubated 1 h, pH 8.0): 0.04%
Residual Activity (%) ([3]; 0 h): 100.00%
Residual Activity (%) ([3]; 1 h): 87.52%

O=C(O)CN(CCN(CC(=O)O)CC(=O)O)CC(=O)O [EDTA, ethylene-diaminetetraacetic acid]
Inhibition (%) ([2]; inhibitor 20 mM, pre-incubated 1 h, pH 8.0): 1.51%

O=C(O)CI [Iodoacetate, iodoacetic acid]
Inhibition (%) ([2]; pH 8): 0.30%

CO [Methanol, methanol]
initial activity retained [4]: > 80%
Residual Activity (%) ([3]; 0 h): 100.00%
Residual Activity (%) ([3]; 1 h): 93.49%
Residual Activity (%) ([3]; 2 h): 46.09%

O=C1CCC(=O)N1Br [NBS, N-bromosuccinimide]
concentration at which complete inhibition was observed ([5]; 10 μM purified protease): 0.06 mM
Residual Activity (%) ([5]; NBS 0.01 mM): 20.39%
Residual Activity (%) ([5]; NBS 0.02 mM): 15.70%
Residual Activity (%) ([5]; NBS 0.03 mM): 12.55%
Residual Activity (%) ([5]; NBS 0.04 mM): 8.93%
Residual Activity (%) ([5]; NBS 0.05 mM): 7.08%
Residual Activity (%) ([5]; NBS 0.06 mM): 0%
Residual Activity (%) ([5]; NBS 0.07 mM): 0%
Residual Activity (%) ([5]; NBS 0.08 mM): 0%
Residual Activity (%) ([5]; NBS 0.09 mM): 0%
Residual Activity (%) ([5]; NBS 0.10 mM): 0%
Inhibition (%) ([6]; 0.01 mM NBS, casein 0 mg): 87.06%
Inhibition (%) ([6]; 0.01 mM NBS, casein 1 mg): 84.85%
Inhibition (%) ([6]; 0.01 mM NBS, casein 2 mg): 69.95%
Inhibition (%) ([6]; 0.01 mM NBS, casein 3 mg): 64.09%
Inhibition (%) ([6]; 0.01 mM NBS, casein 4 mg): 48.93%
Inhibition (%) ([6]; 0.01 mM NBS, casein 5 mg): 43.25%
Inhibition (%) ([6]; 0.01 mM NBS, casein 6 mg): 38.03%
Inhibition (%) ([6]; 0.01 mM NBS, casein 7 mg): 34.06%
Inhibition (%) ([6]; 0.01 mM NBS, casein 8 mg): 24.25%
Inhibition (%) ([6]; 0.01 mM NBS, casein 9 mg): 16.27%
Inhibition (%) ([6]; 0.01 mM NBS, casein 10 mg): 16.28%

[Cl-].[Na+] [NaCl]
stability [7]: 100%

O=S(=O)(F)Cc1ccccc1 [PMSF, phenylmethylsulfonyl fluoride]
concentration at which complete inhibition was observed ([8]; 10 μM purified protease): 0.025 mM
Residual Activity (%) ([8]; PMSF 0.005 mM): 45.65%
Residual Activity (%) ([8]; PMSF 0.010 mM): 8.78%
Residual Activity (%) ([8]; PMSF 0.015 mM): 3.76%
Residual Activity (%) ([8]; PMSF 0.020 mM): 1.74%
Residual Activity (%) ([8]; PMSF 0.025 mM): 0%
Residual Activity (%) ([8]; PMSF 0.030 mM): 0%
Residual Activity (%) ([8]; PMSF 0.035 mM): 0%
Residual Activity (%) ([8]; PMSF 0.040 mM): 0%
Residual Activity (%) ([8]; PMSF 0.045 mM): 0%
Residual Activity (%) ([8]; PMSF 0.050 mM): 0%
Inhibition (%) ([6]; 0.01 mM PMSF, casein 0 mg): 95.02%
Inhibition (%) ([6]; 0.01 mM PMSF, casein 1 mg): 74.91%
Inhibition (%) ([6]; 0.01 mM PMSF, casein 2 mg): 70.78%
Inhibition (%) ([6]; 0.01 mM PMSF, casein 3 mg): 64.06%
Inhibition (%) ([6]; 0.01 mM PMSF, casein 4 mg): 60.71%
Inhibition (%) ([6]; 0.01 mM PMSF, casein 5 mg): 52.65%
Inhibition (%) ([6]; 0.01 mM PMSF, casein 6 mg): 45.22%
Inhibition (%) ([6]; 0.01 mM PMSF, casein 7 mg): 41.73%
Inhibition (%) ([6]; 0.01 mM PMSF, casein 8 mg): 34.80%
Inhibition (%) ([6]; 0.01 mM PMSF, casein 9 mg): 31.56%
Inhibition (%) ([6]; 0.01 mM PMSF, casein 10 mg): 26.26%

CC[n+]1ccc(-c2cccc(S(=O)(=O)[O-])c2)o1 [WRK, Woodward's reagent]
concentration at which complete inhibition was observed ([9]; 10 μM purified protease): 9 mM
Residual Activity (%) ([9]; WRK 1 mM): 86.08%
Residual Activity (%) ([9]; WRK 2 mM): 75.76%
Residual Activity (%) ([9]; WRK 3 mM): 61.47%
Residual Activity (%) ([9]; WRK 4 mM): 49.05%
Residual Activity (%) ([9]; WRK 5 mM): 34.66%
Residual Activity (%) ([9]; WRK 6 mM): 19.53%
Residual Activity (%) ([9]; WRK 7 mM): 11.69%
Residual Activity (%) ([9]; WRK 8 mM): 6.39%
Residual Activity (%) ([9]; WRK 9 mM): 0%
Residual Activity (%) ([9]; WRK 10 mM): 0%
Inhibition (%) ([6]; 5 mM WRK, casein 0 mg): 75.26%
Inhibition (%) ([6]; 5 mM WRK, casein 1 mg): 66.03%
Inhibition (%) ([6]; 5 mM WRK, casein 2 mg): 59.32%
Inhibition (%) ([6]; 5 mM WRK, casein 3 mg): 53.22%
Inhibition (%) ([6]; 5 mM WRK, casein 4 mg): 45.06%
Inhibition (%) ([6]; 5 mM WRK, casein 5 mg): 40.25%
Inhibition (%) ([6]; 5 mM WRK, casein 6 mg): 31.10%
Inhibition (%) ([6]; 5 mM WRK, casein 7 mg): 26.27%
Inhibition (%) ([6]; 5 mM WRK, casein 8 mg): 19.32%
Inhibition (%) ([6]; 5 mM WRK, casein 9 mg): 12.87%
Inhibition (%) ([6]; 5 mM WRK, casein 10 mg): 8.72%

NC(N)=O [urea]
initial activity retained [10]: more than 85%

N-tosyl-L-lysine chloromethyl ketone [TLCK]
Inhibition (%) [2, 11]: 12.12%

N-tosyl-L-phenylalanine chloromethyl ketone [TPCK]
Inhibition (%) [2, 11]: 7.33%

Triton X-100
activity retained ([1]; 2% Triton X-100, 28° C.): 80%
